Experimental data as given in ChEMBL document CHEMBL4433222, “Treatment of Alzheimer's by PROTAC-Tau Protein Degradation” (ACS Med Chem Lett, 2019).

Assay: Half life in CD1 mouse brain at 30 mg/kg, ip by LC-MS/MS analysis
Format: ADME, organism-based

- half-life: 46 min
Compound: O=C(CCc1ccc2c(c1)[nH]c1ccncc12)NCCOCCOCCNc1cccc2c1C(=O)N(C1CCC(=O)NC1=O)C2=O (stereo unspecified)
